# Measured values published in patent publication US20050222027A1, “Modulation of complement to treat pain” (Euro-Celtique S.A., priority 2003, published 2005).
# “Also recorded” adds a separate entry of the source.
# Experiments:
# [1] = tested on: spinal nerve ligation (SNL) model of neuropathic pain; assay: Paw pressure test (paw withdrawal threshold) in the SNL model of neuropathic pain; type: in vivo, rat
# Description: Rats having the L5-L6 spinal nerves ligated (SNL) according to the method of Kim and Chung, Pain 1992; 50:355-63 were used in this experiment. Briefly, nerve injury was induced by tight ligation of the left L5 and L6 spinal nerves, producing symptoms of neuropathic pain as described below. The advantage of this model is that it allows the investigation of dorsal root ganglia that are injured (L5 and L6) versus dorsal root ganglia that are not injured (L4). Thus, it is possible to see changes in gene expression specifically in response to nerve injury.
# Surgery was performed under isoflurane/O2 inhalation anesthesia. Following induction of anesthesia, a 3 cm incision was made just lateral to the spinal vertebrae. The left paraspinal muscles were separated from the spinous process at the L4-S2 levels. The L6 transverse process was carefully removed with a pair of small rongeurs to visually identify the L4-L6 spinal nerves. The left L5 and L6 spinal nerves were isolated and tightly ligated with 7-0 silk suture. A complete hemostasis was confirmed, and the wound was sutured using […] sutures, such as 4-0 Vicryl.
# Mechanical sensitivity was assessed using the paw pressure test. This test measures mechanical hyperalgesia. Hind paw withdrawal thresholds (“PWT”) (measured in grams) in response to a noxious mechanical stimulus were determined using an analgesymeter (Model 7200, commercially available from Ugo Basile of Italy), as described in Stein, Biochemistry & Behavior 1988; 31: 451-455. […] PWT was determined once for each rat at each time point, and only the injured ipsilateral paw (i.e., the hind paw on the same side of the animal as the ligation in SNL animals, or the side of the animal where the nerve was exposed but not injured in sham-operated animals) was used in the test. […]
# The timeline for the general method of surgery followed by CVF injection is outlined in FIG. 8. […] Pain behavior was measured using the paw pressure test as described in Example 1 above. C3 activity was measured by the hemolysis assay before and after animals received CVF as described below.
# C3 = assay: Hemolysis assay measuring C3 activity in serum of rats given CVF; type: in vivo, rat
# Description: A variety of methods well-known in the art can be used to determine at least one activity of a complement component. As described in the Examples Section below, the hemolysis assay can be used to measure the activity of C3 in the serum from blood samples. In the hemolysis assay, erythrocytes are sensitized by coating these erythrocytes with antibodies against red blood cells. Next, the sensitized erythrocytes, C3-depleted serum, and a blood sample to be tested for C3 activity are combined and incubated. During incubation, the complement pathway proceeds on the surface of the erythorcytes using complement components from the C3-depleted serum and C3 from the blood sample. This pathway can result in the formation of a sufficient number of MAC pores to induce erythorcyte lysis and hemoglobin release. The optical density at 540 run is then measured to determine the quantity of free hemoglobin in solution as a result of erythrocyte lysis. Since erythrocyte lysis is a result of complement activation and the presence of C3, the optical density at 540 nm is a measure of the activity of C3 in the blood sample.
# To determine the effect of CVF on complement C3 activity, naïve animals were injected with CVF on days 0, 3, and 6. C3 activity was measured using the hemolysis assay before and after CVF injections as described below.
# The timeline for the general method of surgery followed by CVF injection is outlined in FIG. 8. Spinal nerve ligation (SNL) was performed on Sprague-Dawley rats as described above in Example 1. On day 0, SNL surgery was performed on 20 rats and sham surgery was performed on 20 rats. At days 23 and 26 post surgery, 10 SNL and 10 sham animals (designated herein as SNL-CVF and Sham-CVF, respectively) were injected (ip) with CVF (350 units/kg). In addition, as controls, 10 SNL and 10 sham animals (designated herein as SNL-saline and Sham-saline, respectively) were given saline injections (ip). Five animals from each group were terminated on day 29. The remaining five animals were terminated on day 39. Pain behavior was measured using the paw pressure test as described in Example 1 above. C3 activity was measured by the hemolysis assay before and after animals received CVF as described below.
# The sensitization of sheep erythrocytes and the hemolysis assay to measure C3 activity were performed according to the Quidel Technical Bulletin entitled Measurement of C3 function in non-primate sera by hemolytic assay (Quidel Corporation, Santa Clara, Calif.). References within this protocol are the following: DeSautel and Brode, Laryngoscope 1999, 109:1674-8; Kirshfink, The Complement System 1998, Rother and Till eds, Springer Verlag Berlin Heidelberg, 522-547; Mollnes, Complement and Complement Receptors 1997, Weir ed, 78.1-78.6; Porcel et al., J. Immunol Method. […]
substance,measurement,setting,value
CVF,Pain tolerance (withdrawal threshold to a mechanical stimulus) versus SNL animals injected with saline,[1]; SNL rats treated with CVF compared to SNL saline control,chronic pain is alleviated; also recorded: higher pain tolerance
same,Pain behavior (paw withdrawal threshold) of SNL-CVF animals by day 29,"[1]; SNL rats, CVF 350 units/kg ip on days 23 and 26 post surgery, day 29, FIG. 9",not significantly different than Sham-saline or Sham-CVF animals
same,Pain behavior (paw withdrawal threshold) of SNL-CVF animals by day 31,"[1]; SNL rats, CVF 350 units/kg ip on days 23 and 26 post surgery, day 31, FIG. 9",returned to day 23 levels
same,C3 complement activity levels on day 39,"C3; CVF 350 units/kg ip on days 23 and 26 post surgery, day 39, FIG. 10C",returned to pre-surgery and day 23 levels
same,C3 activity levels relative to pre-surgery and day 23,"C3; CVF treated animals (350 units/kg ip on days 23 and 26 post surgery), days 28 and 29, FIG. 10B",below 20%
same,C3 activity (hemolysis assay) after CVF treatment,"C3; SNL and sham surgery rats injected with CVF or saline, FIGS. 10B and 10C",C3 activity decreases after CVF treatment in both SNL and sham surgery animals
same,"C3 activity (hemolysis assay, optical density at 540 nm) after CVF treatment","C3; naïve rats, CVF given on days 0, 3 and 6, measured at 0, 3, 6, 7, 8 and 12 days, FIG. 10A",return to pre-dosing levels by day 8; also recorded: C3 activity decreases
